The subject of the data set is diabetic foot ulcers. Particulars: human, in vivo. The protocol: The study was designed as a randomized, parallel-group, double-blind, placebo-controlled, multi-center trial. After 14-days of best-of-care to evaluate ulcer healing and ensure the wounds were chronic, four-weeks of active treatment were then followed by eight weeks of observation and assessment. The study compared the effects of two concentrations of NorLeu^3-A(1-7) and placebo, measuring both clinical efficacy and safety. Sustained tissue integrity was evaluated for all subjects during a follow-up period lasting 12 weeks after complete wound closure.
Subjects were randomized in a 1:1:1 ratio to one of the three treatment groups: • Group 1: Placebo Vehicle Control without NorLeu^3-A(1-7) (also referred to as “DSC127”) (2% Hydroxyethyl Cellulose (HEC) with 0.1% methyl paraben, 0.02% propyl paraben) • Group 2: 0.03% NorLeu^3-A(1-7) in Vehicle • Group 3: 0.01% NorLeu^3-A(1-7) in Vehicle
The four-week treatment period required daily application of the treatment to the wound site. The first application each week was at the clinic and for the remainder of the week the patient self-administered the treatment.
If wound healing occurred during the treatment or assessment periods a final assessment visit was conducted and the integrity was assessed 4 and 12 weeks later (usually weeks 16 and 24 of the study). […]

Non-standard residues stand in square brackets, D forms with d. Residues, ends and D or L forms follow the SMILES beside them. Nle = CCCC[C@H](N)C(=O)O

With `CCCC[C@H](NC(=O)[C@H](CCCNC(=N)N)NC(=O)[C@@H](N)CC(=O)O)C(=O)N[C@@H](Cc1ccc(O)cc1)C(=O)N[C@H](C(=O)N[C@@H](Cc1c[nH]cn1)C(=O)N1CCC[C@H]1C(=O)O)[C@@H](C)CC` [NorLeu^3-A(1-7), Asp-Arg-Nle-Tyr-Ile-His-Pro] (H-DR[Nle]YIHP-OH; N-terminus and C-terminus assumed), the “adverse events associated with treatment” value was “no significant adverse events” and the tolerability result was “well-tolerated”.

These data come from patent US8536231B2, “Methods for treating diabetic foot ulcers” (priority 2011, dated 2013).
